Assay results published in patent EP0166353B1, “Benzofused lactams useful as antihypertensive agents and as cholecystokinin antagonists” (Merck & Co., Inc., priority 1984, dated 1986).

Target: CCK receptor
Test: 125I-CCK-33 receptor binding assay
Conditions: tissue not stated (methods given for rat pancreas and guinea pig brain cortex membranes); read-out: IC₅₀, inhibition of specific ¹²⁵I-CCK-33 binding
Procedure: CCK-33 was radiolabeled with ¹²⁵I-Bolton Hunter reagent (2000 Ci/mmole) as described by Sankara et al. (J. Biol. Chem. 254: 9349-9351, 1979). Receptor binding was performed according to Innis and Snyder (Proc. Natl. Acad. Sci. 77: 6917-6921, 1980) with the minor modification of adding the additional protease inhibitors, phenylmethane sulfonyl fluoride and o-phenanthroline. The latter two compounds have no effect on the ¹²⁵I-CCK receptor binding assay.
Male Sprague-Dawley rats (200-350g) were sacrificed by decapitation. The whole pancreas was dissected free of fat tissue and was homogenized in 20 volumes of ice-cold 50 mM, Tris HCl (pH 7.7 at 25°C) with a Brinkmann Polytron PT 10. The homogenates were centrifuged at 48,000 g for 10 min. […] The supernatant was aspirated and discarded, pellets were counted with a Beckman gamma 5000. […]
Male Hartley guinea pigs (300-500g) were sacrificed by decapitation and the brains were removed and placed in ice-cold 50 mM, Tris HCl plus 7.58 g/L Trizma-7.4 (pH 7.4 at 25°C) Cerebral cortex was dissected and used as a receptor source. […] The supernatant was aspirated and discarded, pellets were counted with a Beckman gamma 5000.

Molecule CCOC(=O)C(CCc1ccccc1)NC1CCc2ccccc2N(CC(=O)COC(C)=O)C1=O (stereo not shown) [1-(3-Acetoxy-2-oxopropyl)-3-(1-carboethoxy-3-phenyl-1-propyl)amino homodihydrocarbostyril] has an IC50 of 25 µM.
